Reference: patent publication US7169809B2, “Nitric oxide releasing prodrugs of diaryl-2-(5H)-furanones as cyclooxygenase-2 inhibitors” (Merck Frosst Company, priority 2003, dated 2007)

Experiments:
COX-2 = molecular target: T1, COX-2 (Homo sapiens, UniProt P35354); test: Human whole blood cyclooxygenase assay, COX-2 (LPS-induced PGE2 production); type: cell-based
T1 construct: Fresh blood is collected in heparinized tubes by venipuncture from healthy male volunteers; from tissue; host or cells: fresh heparinized human whole blood from healthy male volunteers, LPS-stimulated for 24 h
T1 sequence (P35354 18-604): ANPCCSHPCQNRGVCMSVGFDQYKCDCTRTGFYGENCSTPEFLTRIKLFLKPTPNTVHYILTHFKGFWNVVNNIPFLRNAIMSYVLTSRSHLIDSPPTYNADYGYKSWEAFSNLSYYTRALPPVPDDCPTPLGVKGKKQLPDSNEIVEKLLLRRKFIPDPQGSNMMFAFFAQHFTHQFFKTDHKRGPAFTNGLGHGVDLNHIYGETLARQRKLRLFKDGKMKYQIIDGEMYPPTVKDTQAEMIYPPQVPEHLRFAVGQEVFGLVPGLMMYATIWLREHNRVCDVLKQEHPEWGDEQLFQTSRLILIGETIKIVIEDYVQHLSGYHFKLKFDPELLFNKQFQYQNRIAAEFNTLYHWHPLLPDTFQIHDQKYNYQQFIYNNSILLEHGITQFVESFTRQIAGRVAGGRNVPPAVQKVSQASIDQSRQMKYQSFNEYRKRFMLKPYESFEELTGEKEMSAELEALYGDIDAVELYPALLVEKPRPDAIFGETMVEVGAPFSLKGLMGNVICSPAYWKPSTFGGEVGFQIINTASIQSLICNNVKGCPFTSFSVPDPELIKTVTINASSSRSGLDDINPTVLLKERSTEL
Experimental: (§1) Whole blood provides a protein and cell-rich milieu for the study of biochemical efficacy of anti-inflammatory compounds such as COX-2 inhibitors and NSAIDs. To study the inhibitory activities of these compounds on the two isoforms of cyclooxygenase (COX-1 and COX-2), human blood is either stimulated with lipopolysaccharide (LPS) for 24 hours to induce COX-2 or the blood is allowed to clot spontaneously to activate COX-1. The production of prostaglandin E2 (PGE2) and thromboxane B2 (TXB2) are measured by immunoassay at the end of the incubation as readouts of COX-2 and COX-1 activity, respectively.
(§2) Human whole blood assays for COX-1 and COX-2 activity, previously reported (Brideau et al, 1996) are performed as described below.
Fresh blood is collected in heparinized tubes by venipuncture from healthy male volunteers. These subjects have no apparent inflammatory conditions and have not taken any NSAIDs for at least 7 days prior to blood collection. The blood is initially pre-incubated with bacterial lipopolysaccharide (LPS) at 100 μg/ml (Sigma Chem, #L-2630 from E. coli, serotype 0111:B4; diluted in 0.1% w/v bovine serine albumin in phosphate buffered saline). Five minutes later, 500 μL aliquots of the LPS-treated blood aree incubated with 2 μL vehicle (DMSO) or 2 μL of test compounds in DMSO for 24 hr at 37° C. (for induction of COX-2). […]

COX-1 = molecular target: T2, COX-1 (Homo sapiens, UniProt P23219); test: Human whole blood cyclooxygenase assay, COX-1 (clotting-induced TXB2 production); type: cell-based; details: clotting 1 h, n=3, read-out: IC50 for inhibition of clotting-induced TXB2 level
T2 construct: Fresh blood from male or female volunteers is collected into vacutainers containing no anticoagulants; from tissue; host or cells: fresh human whole blood without anticoagulant, from male or female volunteers, allowed to clot for 1 h at 37 °C
Experimental: as §1, §2
Fresh blood from male or female volunteers is collected into vacutainers containing no anticoagulants. These subjects have no apparent inflammatory conditions and have not taken any NSAIDs for at least 7 days prior to blood collection. Aliquots of 500 μL are immediately transferred to polypropylene tubes preloaded with 2 μL of DMSO or 2 μL of test compounds. The tubes are vortexed and incubated at 37° C. for 1 h to allow the blood to clot. At the end of the incubation, serum is obtained by centrifugation (3,000 rpm for 10 min at […]). […]

[1] = tested on: carrageenan-induced rat paw edema; test: Carrageenan-induced rat paw edema assay; type: in vivo; details: oral, 1 hr pretreatment, Sprague-Dawley rats, paw volume at 3 h, read-out: inhibition of carrageenan-induced edema response
Experimental: The carrageenan-induced rat paw edema assay is an established assay for evaluating the efficacy of conventional, non-selective NSAIDs in acute inflammation (Winter and Flataker, 1965; Mukherjee et al., 1996; Vinegar et al., 1987).
Male Sprague-Dawley rats (200–250 g) are fasted for 16–18 h prior to oral administration of either the vehicle (0.5% methocel) or test compound. One hour later, a line was drawn using a permanent marker at a level above the ankle in one hind paw to define the area of the paw to be monitored. The paw volume (V0) is measured using a plethysmometer (Ugo-Basile, Italy) based on the Archimedes principle of water displacement. The rats are then injected subplantarly with 0.05 mL of a 1% carrageenan (Sigma Chem.) solution in saline using a syringe with a 27-gauge needle (i.e. 500 μg carrageenan per paw). Three hours later, the paw volume (V3) is measured again and the increases in paw volume (V3−V0) is calculated. Paw edema is compared with the vehicle-control group and the percent inhibition calculated taking the values in the control group as 0%.

gastric erosions = test: Gastric erosion model in rats (co-dosed with aspirin); type: in vivo, rat; details: Wistar rats, compared to rofecoxib dosed with aspirin, 3 hr
Experimental: The gastric protective effects of the combination of the present invention co-administered with aspirin may be evaluated in the following assay.
Male Wistar rats (200–250 g) were fasted for 16–18 h prior to use for experiment. Aspririn, rofecoxib in combination with aspirin (dosed separately), or test compound in combination with aspirin (dosed separately) were given on the morning of the experiment at a dosing volume of 1 ml/kg in 0.5% methocel. Three hr later, the animals were euthanized by CO2 inhalation and the stomach removed, rinsed in saline and prepared for imaging processing. Microscopic pictures of the stomach were taken using a digital camera and gastric erosions were measured using an imaging software by an observer unaware of the treatment groups. The length of gastric erosions was measured in mm and the total length of all erosions from each stomach was obtained and used as gastric damage score.
This model is also described in S. Fiorucci, et al., Gastroenterology, vol. 123, pp. 1598–1606, 2002 and M. Souza, et al., Am. J. Physiol. Gastrointest. Liver Physiol., vol. 285, pp. G54–G61, 2003.

T2 sequence (P23219 24-599): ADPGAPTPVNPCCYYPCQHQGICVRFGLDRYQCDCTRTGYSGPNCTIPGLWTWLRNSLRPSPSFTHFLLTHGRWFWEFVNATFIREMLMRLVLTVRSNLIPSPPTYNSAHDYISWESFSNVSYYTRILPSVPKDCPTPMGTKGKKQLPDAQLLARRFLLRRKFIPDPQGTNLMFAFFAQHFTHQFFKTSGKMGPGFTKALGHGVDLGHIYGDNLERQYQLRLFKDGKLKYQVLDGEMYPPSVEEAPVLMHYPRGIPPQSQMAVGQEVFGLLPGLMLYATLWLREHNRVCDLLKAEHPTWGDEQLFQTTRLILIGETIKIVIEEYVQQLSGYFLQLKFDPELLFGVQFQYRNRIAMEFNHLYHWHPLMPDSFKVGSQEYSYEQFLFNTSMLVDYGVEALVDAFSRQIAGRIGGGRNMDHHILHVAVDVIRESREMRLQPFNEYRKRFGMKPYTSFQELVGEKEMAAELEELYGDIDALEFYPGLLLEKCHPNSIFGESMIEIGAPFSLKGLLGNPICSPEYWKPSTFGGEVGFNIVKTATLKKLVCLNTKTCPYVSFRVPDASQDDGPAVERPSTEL

Q: Which IC50 (COX-2; LPS-stimulated human whole blood, 24 hr, n=6, read-out: IC50 for the inhibition of PGE2 production in a human whole blood assay) does the source give for CC(=O)OC/C(=C(\C(=O)OCCCCCCO[N+](=O)[O-])c1ccccc1)c1ccc(S(C)(=O)=O)cc1 [Example 1, 6-(nitrooxy)hexyl (2Z)-4-(acetyloxy)-3-[4-(methylsulfonyl)phenyl]-2-phenylbut-2-enoate] here?
A: 0.22 ± 0.04 µM

Q: And the COX1/COX2 selectivity (COX-2; in vitro human peripheral blood assay, ratio of COX-1 to COX-2 IC50)?
A: 35 fold

Q: And the IC50 (COX-1)?
A: 7.8 ± 2.6 µM

Q: And the inhibition at 1 mg/kg [1]?
A: 49%

Q: What about the “gastric protection (gastric damage score)” value (gastric erosions) of the same molecule?
A: significant gastric protection
